How the values were obtained:
L1210 [1] = assay: Cytotoxicity against mouse L1210 cells after 48 hrs by microculture tetrazolium assay; type: functional, cell-based; settings: L1210, 48 h
L1210 [2] = assay: Cell cycle arrest in mouse L1210 cells assessed as accumulation at S phase at 10 uM after 21 hrs using propidium iodide staining by flow cytometry; type: functional
L1210 [3] = assay: Cell cycle arrest in mouse L1210 cells assessed as accumulation at G2M phase at 10 uM after 21 hrs using propidium iodide staining by flow cytometry; type: functional
[4] = Cytotoxicity against human KB3-1 cells after 96 hrs by microculture tetrazolium assay; type: functional, cell-based; settings: KB 3-1, 96 h
L1210 [5] = assay: Cell cycle arrest in mouse L1210 cells assessed as accumulation at G1 phase at 10 uM after 21 hrs using propidium iodide staining by flow cytometry; type: functional

Structure (SMILES)	IC50 (L1210 [1]) [µM]	Activity (L1210 [2]) [%]	Activity (L1210 [3]) [%]	IC50 [4] [µM]	Activity (L1210 [5]) [%]
CC(C)(C)C(=O)OCC1=C[C@@H](OC(=O)C(C)(C)C)C2=CC(=O)O[C@@H](O[C@@H]3O[C@H](COC(=O)C(C)(C)C)[C@@H](OC(=O)C(C)(C)C)[C@H](OC(=O)C(C)(C)C)[C@H]3OC(=O)C(C)(C)C)[C@H]12	4	19	45	0.42	36
CC1=C[C@@H](OC(=O)C(C)(C)C)C2=CC(=O)O[C@@H](O[C@@H]3O[C@H](COC(=O)C(C)(C)C)[C@@H](OC(=O)C(C)(C)C)[C@H](OC(=O)C(C)(C)C)[C@H]3OC(=O)C(C)(C)C)[C@H]12	24.8	–	–	7.2	–

From ChEMBL document CHEMBL1165895, “A novel series of cytotoxic iridoid glucosides derived from aucubin: design, synthesis and structure-activity relationships” (Eur J Med Chem, 2010)
